Experimental data: patent publication US6630501B1, “Phosphinic pseudo-peptides that may be used as matrix zinc metalloprotease inhibitors” (Commissariat a l'energie Atomique, priority 1999, dated 2003)

Columns and labels:
[1] = target: T1, MMP-11 (stromelysin-3, mST3) (Mus musculus, UniProt Q02853); assay: Ki determination with fluorogenic synthetic substrates, recombinant MMP-11; format: biochemical, murine; conditions: for Ki: Tris/50 mM HCl buffer, pH 6.8, 10 mM CaCl2, 25° C., read-out: affinity constant Ki, MMP-11 mST3
T1 construct: made in house; host or cells: E. coli
T1 sequence (Q02853 102-492): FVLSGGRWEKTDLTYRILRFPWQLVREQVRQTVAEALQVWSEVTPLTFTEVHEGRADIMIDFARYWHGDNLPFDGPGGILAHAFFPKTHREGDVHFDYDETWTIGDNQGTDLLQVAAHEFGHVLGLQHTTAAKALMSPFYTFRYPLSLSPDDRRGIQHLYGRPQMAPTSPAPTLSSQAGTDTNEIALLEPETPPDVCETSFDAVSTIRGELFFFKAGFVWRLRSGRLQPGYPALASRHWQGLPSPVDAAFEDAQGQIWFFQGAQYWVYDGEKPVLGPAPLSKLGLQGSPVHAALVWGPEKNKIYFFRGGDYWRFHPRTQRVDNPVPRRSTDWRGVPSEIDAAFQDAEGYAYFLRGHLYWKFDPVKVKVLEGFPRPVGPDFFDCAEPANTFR
Method: (§1) The MMPs used were produced in recombinant form, in an E. coli expression system, and then purified using different types of chromatographies. Apart from stromelysin-3 (MMP-11), the MMPs produces correspond to human sequences. The Stromelysin-3 used in this study corresponds to the murine form.
(§2) The activity of each MMP was determined using two fluorogenic synthetic substrates. The cutoff of said substrates, which generates a fluorescent signal proportional to the quantity of split substrate, enables a precise determination of the kinetic parameters. The affinity constants Ki were calculated using the equation of Horowitz et al, Proc. Natl. Acad. Sci. USA, 1987, 84, p. 6654-6658 [14], accounting for the dependency of the percentage of inhibition measured experimentally according to the concentration of inhibitor, as a function of the enzyme and substrate concentration.
(§3) The experiments for conducted in a Tris/50 mM HCl buffer, pH 6.8, 10 mM CaCl2, 25° C.

MMP-1 (HFC) = target: T2, MMP-1 (HFC) (Homo sapiens, UniProt P03956); assay: Ki determination with fluorogenic synthetic substrates, recombinant MMP-1; format: biochemical; conditions: for inhibition at 2000 µM / percentage of inhibition, MMP-1: @ 2 mM inhibitor
T2 construct: made in house; host or cells: E. coli
T2 sequence (P03956 100-469): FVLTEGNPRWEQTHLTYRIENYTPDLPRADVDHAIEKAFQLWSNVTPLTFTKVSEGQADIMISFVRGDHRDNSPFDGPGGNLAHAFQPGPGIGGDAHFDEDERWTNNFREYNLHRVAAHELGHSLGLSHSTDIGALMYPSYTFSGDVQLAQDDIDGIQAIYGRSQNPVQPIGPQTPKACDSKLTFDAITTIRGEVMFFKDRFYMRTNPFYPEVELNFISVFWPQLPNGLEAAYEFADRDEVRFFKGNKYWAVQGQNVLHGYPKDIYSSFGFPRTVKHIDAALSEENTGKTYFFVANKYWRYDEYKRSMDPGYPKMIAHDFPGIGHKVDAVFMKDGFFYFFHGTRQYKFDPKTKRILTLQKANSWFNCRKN
Method: as §1, §2, §3

MMP-2 (Gel-A) = target: T3, MMP-2 (Gel-A) (Homo sapiens, UniProt P08253); assay: Ki determination with fluorogenic synthetic substrates, recombinant MMP-2; format: biochemical; conditions: for Ki: Tris/50 mM HCl buffer, pH 6.8, 10 mM CaCl2, 25° C., read-out: affinity constant Ki, MMP-2 Gel-A; for inhibition at 2000 µM: @ 2 mM inhibitor, read-out: percentage of inhibition, MMP-2
T3 construct: made in house; host or cells: E. coli
T3 sequence (P08253 110-660): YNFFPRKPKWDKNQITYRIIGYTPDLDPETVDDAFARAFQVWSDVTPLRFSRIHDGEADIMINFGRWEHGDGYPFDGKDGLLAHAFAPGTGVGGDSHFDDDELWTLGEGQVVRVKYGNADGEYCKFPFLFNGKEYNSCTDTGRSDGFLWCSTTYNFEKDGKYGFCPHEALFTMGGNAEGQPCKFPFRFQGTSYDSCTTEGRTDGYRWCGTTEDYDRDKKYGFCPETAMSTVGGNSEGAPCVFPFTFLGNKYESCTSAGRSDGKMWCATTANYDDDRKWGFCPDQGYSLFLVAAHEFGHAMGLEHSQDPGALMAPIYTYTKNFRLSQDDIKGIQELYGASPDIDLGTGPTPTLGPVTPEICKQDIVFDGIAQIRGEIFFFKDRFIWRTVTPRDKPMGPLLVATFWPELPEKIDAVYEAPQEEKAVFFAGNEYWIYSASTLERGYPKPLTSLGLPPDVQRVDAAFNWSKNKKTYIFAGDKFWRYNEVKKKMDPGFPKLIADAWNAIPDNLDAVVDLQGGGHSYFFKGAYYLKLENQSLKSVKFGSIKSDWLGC
Method: as §1, §2, §3

MMP-14 (MT1-MMP) = target: T4, MMP-14 (MT1-MMP) (Homo sapiens, UniProt P50281); assay: Ki determination with fluorogenic synthetic substrates, recombinant MMP-14; format: biochemical; conditions: for Ki: Tris/50 mM HCl buffer, pH 6.8, 10 mM CaCl2, 25° C., read-out: affinity constant Ki, MMP-14 MT1-MMP
T4 construct: made in house; host or cells: E. coli
Method: as §1, §2, §3

MMP-8 (HNC) = target: T5, MMP-8 (HNC) (Homo sapiens, UniProt P22894); assay: Ki determination with fluorogenic synthetic substrates, recombinant MMP-8; format: biochemical; conditions: for Ki: Tris/50 mM HCl buffer, pH 6.8, 10 mM CaCl2, 25° C., read-out: affinity constant Ki, MMP-8 HNC
T5 construct: made in house; host or cells: E. coli
T5 sequence (P22894 101-467): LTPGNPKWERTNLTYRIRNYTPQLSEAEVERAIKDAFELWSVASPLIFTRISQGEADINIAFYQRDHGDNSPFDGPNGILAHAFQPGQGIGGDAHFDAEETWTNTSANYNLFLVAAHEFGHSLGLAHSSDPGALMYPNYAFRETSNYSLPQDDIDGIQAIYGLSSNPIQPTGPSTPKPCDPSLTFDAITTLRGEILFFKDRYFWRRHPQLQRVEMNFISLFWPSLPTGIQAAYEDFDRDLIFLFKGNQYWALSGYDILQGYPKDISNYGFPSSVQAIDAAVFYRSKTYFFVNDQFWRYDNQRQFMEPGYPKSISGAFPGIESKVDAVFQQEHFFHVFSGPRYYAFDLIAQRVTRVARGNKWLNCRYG
Method: as §1, §2, §3

MMP-9 (Gel-B) = target: T6, MMP-9 (Gel-B) (Homo sapiens, UniProt P14780); assay: Ki determination with fluorogenic synthetic substrates, recombinant MMP-9; format: biochemical; conditions: for Ki: Tris/50 mM HCl buffer, pH 6.8, 10 mM CaCl2, 25° C., read-out: affinity constant Ki, MMP-9 Gel-B; for inhibition at 2000 µM: @ 2 mM inhibitor, read-out: percentage of inhibition, MMP-9
T6 construct: made in house; host or cells: E. coli
T6 sequence (P14780 94-707): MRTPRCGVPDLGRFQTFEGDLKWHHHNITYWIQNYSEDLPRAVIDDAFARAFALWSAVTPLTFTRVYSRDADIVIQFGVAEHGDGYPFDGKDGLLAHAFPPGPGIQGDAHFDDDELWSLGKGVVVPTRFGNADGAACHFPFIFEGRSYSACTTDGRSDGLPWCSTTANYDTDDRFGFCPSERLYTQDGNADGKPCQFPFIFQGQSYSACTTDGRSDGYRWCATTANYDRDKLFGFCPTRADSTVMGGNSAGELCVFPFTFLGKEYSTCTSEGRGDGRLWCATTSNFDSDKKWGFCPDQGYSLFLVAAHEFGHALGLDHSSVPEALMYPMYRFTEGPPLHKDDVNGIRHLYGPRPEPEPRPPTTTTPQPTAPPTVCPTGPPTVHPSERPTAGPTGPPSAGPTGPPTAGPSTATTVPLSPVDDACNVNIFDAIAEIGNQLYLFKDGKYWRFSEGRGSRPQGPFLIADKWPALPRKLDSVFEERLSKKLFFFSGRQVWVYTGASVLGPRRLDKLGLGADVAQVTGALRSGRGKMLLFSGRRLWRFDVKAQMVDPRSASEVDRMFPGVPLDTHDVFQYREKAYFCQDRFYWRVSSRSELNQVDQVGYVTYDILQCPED
Method: as §1, §2, §3

MMP-7 (Matrilysin) = target: T7, MMP-7 (Matrilysin) (Homo sapiens, UniProt P09237); assay: Ki determination with fluorogenic synthetic substrates, recombinant MMP-7; format: biochemical; conditions: for Ki: Tris/50 mM HCl buffer, pH 6.8, 10 mM CaCl2, 25° C., read-out: affinity constant Ki, MMP-7 Matrilysin
T7 construct: made in house; host or cells: E. coli
T7 sequence (P09237 95-267): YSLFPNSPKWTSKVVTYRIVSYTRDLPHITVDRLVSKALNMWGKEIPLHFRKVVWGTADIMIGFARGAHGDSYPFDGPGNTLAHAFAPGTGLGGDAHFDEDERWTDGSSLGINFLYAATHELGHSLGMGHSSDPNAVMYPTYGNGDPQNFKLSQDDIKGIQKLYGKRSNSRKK
Method: as §1, §2, §3

[2] = read-out: percentage of inhibition, MMP-1

Row | Ki [1] | inhibition at 2000 µM (MMP-1 (HFC); [2]) | Ki (MMP-2 (Gel-A)) | Ki (MMP-14 (MT1-MMP)) | Ki (MMP-8 (HNC)) | Ki (MMP-9 (Gel-B)) | also measured | Compound
1 | 5 nM | 23% | 20 nM | 105 nM | 2.5 nM | 10 nM |  | NC(=O)[C@H](Cc1c[nH]c2ccccc12)NC(=O)C(CCCc1ccccc1)CP(=O)(O)C(Cc1ccccc1)NC(=O)OCc1ccccc1 (mixture of isomers) [Compound 15, ZPheΨ(PO2CpH2)pPheTrpNH2]
2 | 9 nM |  | 42 nM | 385 nM | 65 nM | 78 nM | percentage of inhibition, MMP-7 (MMP-7 (Matrilysin); @ 20 mM inhibitor, listed as R II): 34% @ 20 mM; percentage of inhibition, MMP-1 (MMP-1 (HFC); listed as R II): 16% @ 2 mM | NC(=O)C(Cc1c[nH]c2ccccc12)NC(=O)C(CCCc1ccccc1)CP(=O)(O)C(Cc1ccccc1)NC(=O)OCc1ccccc1 (single isomer, unassigned) [Compound 15 R II]
3 | 50 nM |  | 365 nM | 2290 nM | 460 nM | 250 nM | percentage of inhibition, MMP-7 (MMP-7 (Matrilysin); @ 20 mM inhibitor, listed as S II): 29% @ 20 mM; percentage of inhibition, MMP-1 (MMP-1 (HFC); listed as S II): 6% @ 2 mM | NC(=O)C(Cc1c[nH]c2ccccc12)NC(=O)C(CCCc1ccccc1)CP(=O)(O)C(Cc1ccccc1)NC(=O)OCc1ccccc1 (single isomer, unassigned) [Compound 15 S II]
4 | 5 nM |  | 45 nM | 135 nM | 16 nM | 33 nM | percentage of inhibition, MMP-7 (MMP-7 (Matrilysin); @ 20 mM inhibitor, listed as S I): 59% @ 20 mM; percentage of inhibition, MMP-1 (MMP-1 (HFC); listed as S I): 17% @ 2 mM | NC(=O)C(Cc1c[nH]c2ccccc12)NC(=O)C(CCCc1ccccc1)CP(=O)(O)C(Cc1ccccc1)NC(=O)OCc1ccccc1 (single isomer, unassigned) [Compound 15 S I]
5 | 350 nM | 24% | 250 nM | 2030 nM | 240 nM | 280 nM |  | CC(NC(=O)OCc1ccccc1)P(=O)(O)CC(Cc1ccccc1)C(=O)NC(Cc1c[nH]c2ccccc12)C(N)=O (stereo not drawn) [Compound 7]
6 | 51 nM | 23% | 80 nM | 270 nM | 20 nM | 60 nM |  | CC(NC(=O)OCc1ccccc1)P(=O)(O)CC(CCc1ccccc1)C(=O)NC(Cc1c[nH]c2ccccc12)C(N)=O (stereo not drawn) [Compound 8]
7 | 100 nM | 30% | 31 nM | 92 nM | 8 nM | 23 nM | factor by which activity on MMP-8 is multiplied when R3 changes from benzyl to phenylpropyl (MMP-8 (HNC); compound 9 in relation to compound 7): 30 | CC(NC(=O)OCc1ccccc1)P(=O)(O)CC(CCCc1ccccc1)C(=O)NC(Cc1c[nH]c2ccccc12)C(N)=O (stereo not drawn) [Compound 9]
8 | 175 nM | 15% | 250 nM | 550 nM | 19 nM | 44 nM |  | CC(NC(=O)OCc1ccccc1)P(=O)(O)CC(COCc1ccccc1)C(=O)NC(Cc1c[nH]c2ccccc12)C(N)=O (stereo not drawn) [Compound 10]
9 | 36 nM | 45% | 14 nM | 26 nM |  | 6 nM |  | CC(NC(=O)OCc1ccccc1)P(=O)(O)CC(CSCc1ccccc1)C(=O)NC(Cc1c[nH]c2ccccc12)C(N)=O (stereo not drawn) [Compound 11]
10 | 2670 nM | 20% |  |  |  |  | inhibition at 2000 µM (MMP-2 (Gel-A)): 0%; inhibition at 10000 µM (MMP-14 (MT1-MMP); @ 10 mM inhibitor, read-out: percentage of inhibition, MMP-14): 0%; inhibition at 1000 µM (MMP-8 (HNC); @ 1 mM inhibitor, read-out: percentage of inhibition, MMP-8): 9%; inhibition at 2000 µM (MMP-9 (Gel-B)): 0% | CC(CP(=O)(O)C(Cc1ccccc1)NC(=O)OCc1ccccc1)C(=O)NC(Cc1c[nH]c2ccccc12)C(N)=O (stereo not drawn) [Compound 12]
11 | 22 nM |  | 202 nM | 192 nM | 40 nM | 65 nM | Ki (MMP-7 (Matrilysin)): 210 nM; percentage of inhibition, MMP-1 (MMP-1 (HFC)): 45% @ 2 mM | CC(C)CC(CP(=O)(O)C(Cc1ccccc1)NC(=O)OCc1ccccc1)C(=O)NC(Cc1c[nH]c2ccccc12)C(N)=O (stereo not drawn) [Compound 13]
12 | 8.8 nM | 10% | 275 nM | 660 nM | 45 nM | 110 nM | inhibitory power on MMP-11, in words [1]: very powerful | NC(=O)C(Cc1c[nH]c2ccccc12)NC(=O)C(CCc1ccccc1)CP(=O)(O)C(Cc1ccccc1)NC(=O)OCc1ccccc1 (stereo not drawn) [Compound 14]
13 | 33 nM |  | 145 nM | 580 nM | 4.3 nM | 70 nM | percentage of inhibition, MMP-7 (MMP-7 (Matrilysin); @ 50 mM inhibitor): 65% @ 50 mM; percentage of inhibition, MMP-1 (MMP-1 (HFC)): 5% @ 2 mM | NC(=O)C(Cc1c[nH]c2ccccc12)NC(=O)C(CCCCc1ccccc1)CP(=O)(O)C(Cc1ccccc1)NC(=O)OCc1ccccc1 (stereo not drawn) [Compound 16]
14 | 16 nM | 9% | 85 nM | 545 nM | 20 nM | 55 nM |  | NC(=O)C(Cc1c[nH]c2ccccc12)NC(=O)C(COCc1ccccc1)CP(=O)(O)C(Cc1ccccc1)NC(=O)OCc1ccccc1 (stereo not drawn) [Compound 17]
15 |  | 9% |  | 2960 nM | 240 nM |  | inhibition at 1000 µM ([1]; @ 1 mM inhibitor, read-out: percentage of inhibition, MMP-11): 20%; inhibition at 2000 µM (MMP-2 (Gel-A)): 31%; inhibition at 2000 µM (MMP-9 (Gel-B)): 45% | CC(NC(=O)C(CCCc1ccccc1)CP(=O)(O)C(Cc1ccccc1)NC(=O)OCc1ccccc1)C(N)=O (stereo not drawn) [Compound 22]
16 | 1.5 nM |  | 10 nM | 41 nM |  | 8 nM | Ki (MMP-7 (Matrilysin)): 605 nM; inhibition at 1 µM (MMP-1 (HFC); @ 1 μM inhibitor, read-out: percentage of inhibition, MMP-1): 87% | NC(=O)C(Cc1c[nH]c2ccccc12)NC(=O)C(CCCc1ccccc1)CP(=O)(O)C(Cc1ccccc1)NC(=O)c1cc2ccccc2[nH]1 (stereo not drawn) [Compound 30]
